From ChEMBL document CHEMBL3272295, “Drugs derived from cannabinoids. 5. delta6a,10a-Tetrahydrocannabinol and heterocyclic analogs containing aromatic side chains” (J Med Chem, 1976)
Structures can show the parent of a compound that is named as a salt.

Key:
[1] = Acute toxicity in po dosed mouse; format: organism-based; settings: in vivo
Rattus norvegicus [2] = assay: Antianxiety activity in Long-Evans rat assessed as reduction in motor activity at 5 mg/kg, po after 2 hrs relative to vehicle-treated control; format: functional; design: scale not given: the % may be the effect or the level left
Rattus norvegicus [3] = species: Rattus norvegicus; assay: animal or person; format: functional; settings: Charles River, route oral
Description: Antidiarrheal activity in Charles River rat assessed as inhibition of castor oil-induced diarrhea by measuring protected animals at 0.5 mg/kg, po administered 1 hr prior to castor oil challenge measured after 1 hr relative to vehicle-treated control

Felis catus [4] = assay: Hypnotic activity in cat assessed as increase in total sleep time at 0.5 mg/kg administered orally through diet measured for 12 hrs by EEG analysis; format: functional; settings: route oral
Mus musculus [5] = assay: Antianxiety activity in albino BALB/cJ mouse assessed as reduction in footshock-induced fighting behavior at 5 mg/kg, po after 30 to 90 mins; format: functional; design: scale not given: the % may be the effect or the level left
Rattus norvegicus [6] = assay: Antihypertensive activity in spontaneously hypertensive rat model assessed as reduction in blood pressure at 30 mg/kg, po after 24 hrs; format: functional; design: scale not given: the % may be the effect or the level left
Rattus norvegicus [7] = assay: Antipsychotic activity in rat assessed as reduction of methamphetamine-induced hyperactivity at 20 mg/kg, po administered prior to methamphetamine challenge relative to vehicle-treated control; format: functional; design: scale not given: the % may be the effect or the level left
Rattus norvegicus [8] = assay: Antihypertensive activity in spontaneously hypertensive rat model assessed as reduction in blood pressure at 30 mg/kg, po after 3 hrs; format: functional; design: scale not given: the % may be the effect or the level left
Rattus norvegicus [9] = assay: Antipsychotic activity in rat assessed as reduction of methamphetamine-induced hyperactivity at 10 mg/kg, po administered prior to methamphetamine challenge relative to vehicle-treated control; format: functional; design: scale not given: the % may be the effect or the level left
Mus musculus [10] = assay: Analgesic activity in po dosed mouse assessed as inhibition of acetic acid-induced writhing administered 30 mins prior to acetic acid challenge measured after 5 mins for 20 mins; format: functional
Felis catus [11] = assay: Hypnotic activity in cat assessed as increase in non-REM sleep time at 0.5 mg/kg administered orally through diet measured for 12 hrs by EEG analysis; format: functional; settings: route oral
Rattus norvegicus [12] = assay: Antidiarrheal activity in Charles River rat assessed as inhibition of castor oil-induced diarrhea by measuring protected animals at 0.05 mg/kg, po administered 1 hr prior to castor oil challenge measured after 1 hr relative to vehicle-treated control; format: functional
Rattus norvegicus [13] = assay: Antidiarrheal activity in Charles River rat assessed as inhibition of castor oil-induced diarrhea by measuring protected animals at 0.2 mg/kg, po administered 1 hr prior to castor oil challenge measured after 1 hr relative to vehicle-treated control; format: functional
Rattus norvegicus [14] = assay: Antidiarrheal activity in Charles River rat assessed as inhibition of castor oil-induced diarrhea by measuring protected animals at 0.1 mg/kg, po administered 1 hr prior to castor oil challenge measured after 1 hr relative to vehicle-treated control; format: functional
Canis familiaris = assay: Antianxiety activity in po dosed dog assessed as ataxia administered as single dose measured up to 24 hrs; format: functional; settings: Canis lupus familiaris, read-out: MED
Rhesus monkey = assay: Antianxiety activity in po dosed rhesus monkey assessed as antiagressive behavior measured every hour post dosing; format: functional; settings: Macaca mulatta, read-out: MED
Rattus norvegicus [15] = assay: Antisecretory activity in Sprague-Dawley rat assessed as decrease in pepsin output at 50 mg/kg, po administered 30 mins prior to pylorus ligation measured after 4 hrs relative to control; format: functional; design: scale not given: the % may be the effect or the level left
Rattus norvegicus [16] = assay: Antisecretory activity in Sprague-Dawley rat assessed as decrease in acidity at 50 mg/kg, po administered 30 mins prior to pylorus ligation measured after 4 hrs relative to control; format: functional; design: scale not given: the % may be the effect or the level left
Rattus norvegicus [17] = assay: Antisecretory activity in Sprague-Dawley rat assessed as decrease in volume at 50 mg/kg, po administered 30 mins prior to pylorus ligation measured after 4 hrs relative to control; format: functional; design: scale not given: the % may be the effect or the level left
Rattus norvegicus [18] = assay: Increase in pepsin concentration in Sprague-Dawley rat at 50 mg/kg, po administered 30 mins prior to pylorus ligation measured after 4 hrs relative to control; format: functional
Rattus norvegicus [19] = assay: Antipsychotic activity in rat assessed as reduction of methamphetamine-induced hyperactivity at 5 mg/kg, po administered prior to methamphetamine challenge relative to vehicle-treated control; format: functional; design: scale not given: the % may be the effect or the level left
Mus musculus [20] = assay: Antianxiety activity in albino BALB/cJ mouse assessed as reduction in footshock-induced fighting behavior at 10 mg/kg, po after 30 to 90 mins; format: functional; design: scale not given: the % may be the effect or the level left
Rattus norvegicus [21] = assay: Antisecretory activity in Sprague-Dawley rat assessed as decrease in acid output at 50 mg/kg, po administered 30 mins prior to pylorus ligation measured after 4 hrs relative to control; format: functional; design: scale not given: the % may be the effect or the level left

**Q.** For `C#CCN1CCC2=C(C1)c1c(O)cc(C(C)CCCCc3ccc(F)cc3)cc1OC2(C)C` (centres undefined), which LD50 [1] is on record?
**A.** The LD50 was at least 1000 mg/kg.

**Q.** And the Activity (Rattus norvegicus [2])?
**A.** Its Activity is 33%.

**Q.** And the inhibition in vivo at 0.5 mg/kg (Rattus norvegicus [3])?
**A.** The inhibition in vivo at 0.5 mg/kg was 30%.

**Q.** What about the Time (Felis catus [4]) of the same molecule?
**A.** The Time was 61 min.

**Q.** And the Activity (Mus musculus [5])?
**A.** Its Activity is 0%.

**Q.** What about the Activity (Rattus norvegicus [6]) of the same molecule?
**A.** Its Activity is 0%.

**Q.** What about the Activity (Rattus norvegicus [7]) of the same molecule?
**A.** Its Activity is 70%.

**Q.** And the Activity (Rattus norvegicus [8])?
**A.** The Activity was 0%.

**Q.** What about the Activity (Rattus norvegicus [9]) of the same molecule?
**A.** The Activity was 50%.

**Q.** What about the ED50 (Mus musculus [10]) of the same molecule?
**A.** Its ED50 is 48 mg/kg.

**Q.** And the Time (Felis catus [11])?
**A.** Its Time is 7 min.

**Q.** Which inhibition in vivo at 0.05 mg/kg (Rattus norvegicus [12]) does the source give for `CCOC(=O)C1(c2ccccc2)CCN(CCC(C#N)(c2ccccc2)c2ccccc2)CC1` [DIPHENOXYLATE HYDROCHLORIDE] here?
**A.** The inhibition in vivo at 0.05 mg/kg was 46%.

**Q.** What about the inhibition in vivo at 0.2 mg/kg (Rattus norvegicus [13]) of the same molecule?
**A.** Its inhibition in vivo at 0.2 mg/kg is 95%.

**Q.** What about the inhibition in vivo at 0.1 mg/kg (Rattus norvegicus [14]) of the same molecule?
**A.** The inhibition in vivo at 0.1 mg/kg was 67%.

**Q.** With `C#CCN1CCC2=C(C1)c1c(OC(=O)CCCN3CCCCC3)cc(C(C)CCCc3ccc(F)cc3)cc1OC2(C)C.Cl` (centres undefined) as the molecule, how does the LD50 [1] read?
**A.** The LD50 was 750 mg/kg.

**Q.** What about the minimal effective dose (Canis familiaris) of the same molecule?
**A.** Its minimal effective dose is 0.4 mg/kg.

**Q.** What about the minimal effective dose (Rhesus monkey) of the same molecule?
**A.** Its minimal effective dose is 1 mg/kg.

**Q.** What about the Activity (Rattus norvegicus [15]) of the same molecule?
**A.** The Activity was 1.9%.

**Q.** What about the Activity (Rattus norvegicus [2]) of the same molecule?
**A.** Its Activity is 87%.

**Q.** And the Activity (Rattus norvegicus [16])?
**A.** Its Activity is 42.4%.

**Q.** And the Activity (Rattus norvegicus [17])?
**A.** Its Activity is 24.9%.

**Q.** What about the Activity (Rattus norvegicus [18]) of the same molecule?
**A.** The Activity was 32%.

**Q.** What about the inhibition in vivo at 0.5 mg/kg (Rattus norvegicus [3]) of the same molecule?
**A.** The inhibition in vivo at 0.5 mg/kg was 40%.

**Q.** What about the Time (Felis catus [4]) of the same molecule?
**A.** Its Time is 47 min.

**Q.** And the Activity (Rattus norvegicus [19])?
**A.** Its Activity is 62%.

**Q.** What about the ED50 (Mus musculus [10]) of the same molecule?
**A.** Its ED50 is 10.3 mg/kg.

**Q.** What about the Activity (Mus musculus [20]) of the same molecule?
**A.** The Activity was 23%.

**Q.** And the Time (Felis catus [11])?
**A.** The Time was 121 min.

**Q.** What about the Activity (Rattus norvegicus [21]) of the same molecule?
**A.** Its Activity is 56.1%.
